Test results reported in patent US20050241012A1, “Multigene profiling in the kidney to tailor drug therapy” (priority 2003, published 2005).
“Also recorded” adds a separate entry of the source. Where a name gives a salt, the structure may show the parent alone.

What was measured:
[1] = tested on: renal slices; experiment: Renal tissue slice uptake assay, wild-type and Oat3−/− mice; settings: for renal slice uptake in Oat3−/− mice compared with wild-type: 1 h, taurocholate or para-aminohippurate; for renal slice uptake in Oat3−/− mice compared with wild-type / ES transport in Oat3−/− renal slices in the presence of inhibitor: 100 nM estrone sulfate; for inhibition of taurocholate, estrone sulfate and para-aminohippurate uptake in wild-type renal slices / ES transport in Oat3−/− renal slices in the presence of inhibitor: 1 mM inhibitor
Description: (§1) Data were calculated as tissue to medium T/M ratios and are presented as mean values ±S. E. (3 slices, treatment).
(§2) Renal and hepatic tissue slice preparation and uptake assays were performed according to standard protocols. Four- to 6-month-old mice were euthanized by CO2 inhalation, and the liver and kidneys were immediately placed into freshly oxygenated ice-cold saline. Tissue slices (˜0.5 mm; ˜5-10 mg, wet weight) were cut with a Stadie-Riggs microtome and maintained in ice-cold modified Cross and Taggart saline (in mM: 95 NaCl, 80 mannitol, 5 KCl, 0.74 CaCl2, and 9.5 Na2PO4, pH 7.4). […] Conditions for the PAH experiments were optimized for Oat1 by the addition of 10 μM glutarate to the uptake buffer. After incubation the slices were removed from the uptake medium, blotted, weighed, dissolved in 1 ml of 1M NaOH, neutralized with 1 ml of 1M HCl, and assayed by liquid scintillation spectroscopy. Duplicate medium samples (50 μl) were also assayed, and data are presented as tissue to medium (T/M) ratios (i.e. dpm/mg of tissue divided by dpm/μl of medium).
Statistics. The renal slice data were compared using unpaired Student's t-test. Differences in mean values between the control and inhibited conditions were considered significant when p≦0.05.

[2] = tested on: hepatic slices; experiment: Hepatic tissue slice uptake assay, wild-type and Oat3−/− mice; settings: 1 h
Description: as §1, §2

[3] = molecular target: T1, mouse Oat3 (Mus musculus, UniProt O88909); settings: 90 nM [3H]estrone sulfate
T1 sequence (O88909 1-537): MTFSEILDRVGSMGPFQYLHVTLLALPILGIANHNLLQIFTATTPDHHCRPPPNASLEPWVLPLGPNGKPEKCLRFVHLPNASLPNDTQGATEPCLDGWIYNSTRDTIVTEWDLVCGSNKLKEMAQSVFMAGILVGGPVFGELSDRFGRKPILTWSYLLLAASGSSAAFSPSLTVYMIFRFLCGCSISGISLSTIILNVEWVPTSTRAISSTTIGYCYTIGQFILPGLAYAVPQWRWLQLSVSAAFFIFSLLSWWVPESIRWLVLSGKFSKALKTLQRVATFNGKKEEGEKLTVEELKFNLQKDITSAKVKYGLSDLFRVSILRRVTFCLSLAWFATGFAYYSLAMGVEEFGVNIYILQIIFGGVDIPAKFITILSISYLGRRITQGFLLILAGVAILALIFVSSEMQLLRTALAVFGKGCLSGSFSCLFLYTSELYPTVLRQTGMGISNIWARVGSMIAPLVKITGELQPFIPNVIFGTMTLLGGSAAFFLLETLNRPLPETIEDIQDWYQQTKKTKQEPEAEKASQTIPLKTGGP
Description: FIG. 13 oocytes three days after injection with either mouse Oat1 or mouse Oat3 cRNA. Oocytes were randomly sorted into test groups and 1 h uptake determined.
Transport Assays-Xenopus oocyte isolation procedures and uptake assay. Ovaries were removed from tricaine methanesulfonate anesthetized adult female Xenopus laevis and follicle-free stage V and stage VI oocytes were isolated by treatment with collagenase A. After an overnight recovery period in Barth's buffer at 18° C., oocytes were microinjected with 20 ng of capped cRNA synthesized from linearized cDNA (mMessage mMachine in vitro transcription kit, Ambion, Inc., Austin, Tex.). […] Oocyte radioactivity was measured in disintegrations/min (dpm) in a Packard 1600TR liquid scintillation counter with external quench correction.

[4] = tested on: choroid plexus; experiment: Accumulation in isolated choroid plexus, confocal fluorescence microscopy, wild-type and Oat3−/− mice; settings: for reduction of cellular accumulation (cellular fluorescence) in CP from Oat3−/− mice: both, mouse, 45 min, 1 μM, pH 7.4
Source text: The CP is composed of capillary projections surrounded by a single layer of cells that protrude into the cerebrospinal fluid-filled ventricles of the brain. The orientation is such that the CSF bathes the apical membrane of the cell and the basal membrane is toward the underlying fenestrated capillary. (A and C) Transmitted light images of wild-type and Oat3^−/− CP, respectively, showing the tissue structure. (B and D) Corresponding fluorescence micrographs of the CP shown in (A) and (C). Confocal images were acquired 45 min after exposure to 1 μM FL in the aCSF medium. […] The positions of representative cells and capillaries (CUD) are indicated by arrows. A 20-μm bar is shown.
Fluorescence levels in cells and vessels of CP from 4 wild-type and 4 Out3^−/− mice were measured (n=5-10 adjacent cellular and capillary areas/CP). […] Data are given as mean ±S.E. for each animal.
Choroid plexus isolation. Adult male and female wild-type and Oat3^−/− mice were euthanized with CO2.
Confocal Fluorescence Microscopy. CP were imaged as using an inverted Zeiss model 510 laser scanning confocal microscope fitted with a 40μ water immersion objective (numeric aperture, 1.2). Samples were illuminated with the 488-nm line of an argon laser; a 510-nm dichroic filter was in the light path, and a long pass emission filter (515 nm) was positioned in front of the detector. […] For each CP, 5-10 adjacent cellular and capillary areas were selected. After background subtraction, the average pixel intensity for each area was calculated and the values reported graphically for each CP are the means ±S.E. for all selected areas (n˜5-10). Values reported in the text are mean ±S.E. of the individual mean values for each CP as determined above (n˜4-6 animals/group).

Nc1ccc(C(=O)NCC(=O)O)cc1 [PAH, para-aminohippurate]
renal slice uptake in Oat3−/− mice compared with wild-type ([1]; 10 μM TEA): significant (p<0.001) decrease; also recorded: significantly reduced
hepatic slice uptake [2]: complete lack
mediated uptake in Oat3-expressing oocytes ([3]; 1 h uptake, 10 μM [3H]PAH, 500 nM [3H]taurocholate): observed

CC[N+](CC)(CC)CC [TEA, tetraethylammonium]
renal slice uptake in Oat3−/− mice compared with wild-type ([1]; 10 μM TEA): unaltered; also recorded: unaffected

O=C1OC(c2ccc(O)c(S(=O)(=O)O)c2)(c2ccc(O)c(S(=O)(=O)O)c2)c2c(Br)c(Br)c(Br)c(Br)c21 [BSP, bromo-sulfophthalein]
inhibition of taurocholate, estrone sulfate and para-aminohippurate uptake in wild-type renal slices [1]: sensitive to inhibition
ES transport in Oat3−/− renal slices in the presence of inhibitor [1]: additional drop

CCCN(CCC)S(=O)(=O)c1ccc(C(=O)O)cc1 [probenecid]
inhibition of residual FL uptake in CP from Oat3 knockout animals [4]: probenecid-sensitive
inhibition of taurocholate, estrone sulfate and para-aminohippurate uptake in wild-type renal slices [1]: sensitive to inhibition
ES transport in Oat3−/− renal slices in the presence of inhibitor [1]: additional drop
inhibition of Oat3-mediated ES transport in oocytes ([3]; 1 mM probenecid): completely blocked

C=C[C@H]1C[N@@]2CC[C@H]1C[C@H]2[C@H](O)c1ccnc2ccc(OC)cc12 [Quinine sulfate, quinine sulfate]
inhibition of renal uptake of [14C]TEA ([1]; 200 μM quinine sulfate, 10 μM TEA): sensitive

O=C1OC2(c3ccc(O)cc3Oc3cc(O)ccc32)c2ccccc21 [FL, fluorescein]
reduction of cellular accumulation (cellular fluorescence) in CP from Oat3−/− mice ([4]; C57BL/6J): ~75%
reduction of cellular accumulation (cellular fluorescence) in CP from Oat3−/− mice [4]: about 75%
